From patent EP4417602A1, “SUBSTITUTED PYRAZOLE CARBOXAMIDES, SALTS THEREOF AND THEIR USE AS HERBICIDALLY ACTIVE SUBSTANCES” (Bayer AG, priority 2023, dated 2024)

What was measured:
ECHCG [1] = experiment: A. Herbicidal pre-emergence action on harmful plants (Tables A); type: in vivo, Echinochloa crus-galli; settings: visual grading after ca. 3 weeks vs untreated controls, 100% = plants have died off, 0% = as control plants
Method in brief: (§1)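 Values are visual percent damage relative to untreated controls, scored ca. 3 weeks after the compound was sprayed on the covering soil of sown pots (sandy loam) at rates up to 1280 g/ha, formulated as WP or EC with 0.5% additive.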

POAAN [2] = experiment: B. Herbicidal post-emergence action on harmful plants (Tables B); type: in vivo, Poa annua
Method in brief: (§2)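 Greenhouse weeds grown in sandy loam were sprayed post-emergence at the one-leaf stage, 2-3 weeks after sowing. Compounds were applied as WP or EC in water with 0.5% additive at 600 L/ha, at 1280 g/ha or below. Visual damage was rated after about 3 weeks versus untreated plants (0-100%).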

LOLRI [3] = experiment: as above; type: in vivo, Lolium rigidum; settings: application rate 1280 g/ha; Table B3
Description: (§3) Seeds of mono- and dicotyledonous weed plants were placed in plastic pots in sandy loam soil (doubly sown with in each case one species of mono- or dicotyledonous weed plants per pot), covered with soil and cultivated in a greenhouse under controlled growth conditions. 2 to 3 weeks after sowing, the test plants were treated at the one-leaf stage. The compounds of the invention, formulated in the form of wettable powders (WP) or as emulsion concentrates (EC), were applied onto the green parts of the plants as aqueous suspension or emulsion with addition of 0.5% additive at a water application rate of 600 liters per hectare (converted). After the test plants had been kept in the greenhouse under optimum growth conditions for about 3 weeks, the activity of the preparations was rated visually in comparison to untreated controls. For example, 100% activity = the plants have died, 0% activity = like control plants. Tables B1 to B12, below, show the effects of selected compounds of the general formula (I) according to table 1 on various harmful plants and an application rate corresponding to 1280 g/ha or below obtained by the experimental procedure mentioned above. Table B1a: post-emergence activity at 1280g/ha against ABUTH in %

MATIN [4] = experiment: as above; type: in vivo, Matricaria inodora
Method in brief: as §2

ALOMY [5] = experiment: A. Herbicidal pre-emergence action on harmful plants (Tables A); type: in vivo, Alopecurus myosuroides
Method in brief: as §1

SETVI [6] = experiment: as above; type: in vivo, Setaria viridis; settings: visual grading after ca. 3 weeks vs untreated controls, 100% = plants have died off, 0% = as control plants
Method in brief: as §1

STEME [7] = experiment: B. Herbicidal post-emergence action on harmful plants (Tables B); type: in vivo, Stellaria media; settings: application rate 1280 g/ha; Table B6
Method in brief: as §2

LOLRI [8] = experiment: A. Herbicidal pre-emergence action on harmful plants (Tables A); type: in vivo, Lolium rigidum; settings: visual grading after ca. 3 weeks vs untreated controls, 100% = plants have died off, 0% = as control plants
Method in brief: as §1

DIGSA [9] = experiment: as above; type: in vivo, Digitaria sanguinalis
Method in brief: as §1

ECHCG [10] = experiment: B. Herbicidal post-emergence action on harmful plants (Tables B); type: in vivo, Echinochloa crus-galli; settings: application rate 1280 g/ha; Table B2a
Method in brief: as §2

STEME [11] = experiment: A. Herbicidal pre-emergence action on harmful plants (Tables A); type: in vivo, Stellaria media; settings: visual grading after ca. 3 weeks vs untreated controls, 100% = plants have died off, 0% = as control plants
Method in brief: as §1

VERPE = experiment: B. Herbicidal post-emergence action on harmful plants (Tables B); type: in vivo, Veronica persica; settings: application rate 1280 g/ha; Table B11a
Method in brief: as §2

POAAN [12] = experiment: A. Herbicidal pre-emergence action on harmful plants (Tables A); type: in vivo, Poa annua
Method in brief: as §1

MATIN [13] = experiment: as above; type: in vivo, Matricaria inodora; settings: visual grading after ca. 3 weeks vs untreated controls, 100% = plants have died off, 0% = as control plants
Method in brief: as §1

ECHCG [14] = experiment: C. Herbicidal pre-emergence action, weed and crop plants (Tables C); type: in vivo, Echinochloa crus-galli; settings: application rate 320 g/ha; Table C6a
Description: (§4) Seeds of mono- and dicotyledonous weed plants and crop plants were sown, in plastic or organic planting pots, in sandy loam and covered with soil. The compounds according to the invention, formulated in the form of wettable powders (WP) or as emulsifiable concentrates (EC), were applied to the surface of the covering soil as aqueous suspension or emulsion, with the addition of 0.5% of an additive, at an application rate of 6001 of water/ha (converted). Following treatment, the pots were placed in a greenhouse and kept under optimum growth conditions for the test plants. The visual grading of the damage to the test plants was carried out after ca. 3 weeks in comparison to untreated controls (herbicidal effect in percent (%): 100% effect = plants have died off, 0% effect = as control plants). Tables C1 to C12 below show the effects of selected compounds of the general formula (I) according to table 1 on various harmful plants and an application rate corresponding to 320 g/ha or below obtained by the experimental procedure mentioned above. Table C1: pre-emergence activity at 320g/ha against KCHSC in %

GLXMA [15] = experiment: F. Post-emergence effects on crop plants (Tables F); type: in vivo, Glycine max; settings: application rate 320 g/ha, crop plant
Description: (§5) Seeds of mono- and dicotyledonous weed plants and crop plants were sown, in plastic or organic planting pots, in sandy loam, covered with soil and grown in a greenhouse under controlled growth conditions. 2 to 3 weeks after sowing, the test plants were sprayed in the single-leaf stage. The compounds according to the invention, formulated in form of wettable powders (WP) or as emulsifiable concentrates (EC), were sprayed onto the green plant parts as aqueous suspension or emulsion, with the addition of 0.5% of an additive, at an application rate of 6001 of water/ha (converted). The test plants were placed in the greenhouse for ca. 3 weeks under optimum growth conditions, and then the effect of the preparations was assessed visually in comparison with untreated controls (herbicidal effect in percent (%): 100% effect = plants have died off, 0% effect = as control plants). Tables F1 to F5 below show the effects of selected compounds of the general formula (I) according to table 1 on various crop plants and an application rate corresponding to 320 g/ha or below obtained by the experimental procedure mentioned above. Table […]: post-emergence activity at 320g/ha against ZEAMX in %

DIGSA [16] = experiment: C. Herbicidal pre-emergence action, weed and crop plants (Tables C); type: in vivo, Digitaria sanguinalis; settings: application rate 320 g/ha; Table C5a
Description: as §4

BRSNW [17] = experiment: D. Pre-emergence effects on crop plants (Tables D); type: in vivo, Brassica napus; settings: application rate 80 g/ha, crop plant
Description: (§6) Seeds of mono- and dicotyledonous weed plants and crop plants were sown, in plastic or organic planting pots, in sandy loam and covered with soil. The compounds according to the invention, formulated in the form of wettable powders (WP) or as emulsifiable concentrates (EC), were applied to the surface of the covering soil as aqueous suspension or emulsion, with the addition of 0.5% of an additive, at an application rate of 6001 of water/ha (converted).
(§7) Following treatment, the pots were placed in a greenhouse and kept under optimum growth conditions for the test plants. The visual grading of the damage to the test plants was carried out after ca. 3 weeks in comparison to untreated controls (herbicidal effect in percent (%): 100% effect = plants have died off, 0% effect = as control plants).
(§8) Tables D1 to D5 below show the effects of various compounds of the general formula (I) according to Table 1 on various crop plants and an application rate corresponding to 320 g/ha or below obtained by the experimental procedure mentioned above in Biological Examples, Section C. Table D1a: pre-emergence activity at 320g/ha against ZEAMX in %

VIOTR = experiment: C. Herbicidal pre-emergence action, weed and crop plants (Tables C); type: in vivo, Viola tricolor; settings: application rate 320 g/ha; Table C12a
Description: as §4

ALOMY [18] = experiment: as above; type: in vivo, Alopecurus myosuroides; settings: application rate 320 g/ha; Table C2a
Description: as §4

GLXMA [19] = experiment: D. Pre-emergence effects on crop plants (Tables D); type: in vivo, Glycine max; settings: crop plant; application rate 80 g/ha; Table D4b
Description: as §6, §7, §8

MATIN [20] = experiment: C. Herbicidal pre-emergence action, weed and crop plants (Tables C); type: in vivo, Matricaria inodora; settings: application rate 320 g/ha; Table C8
Description: as §4

ZEAMX [21] = experiment: F. Post-emergence effects on crop plants (Tables F); type: in vivo, Zea mays; settings: crop plant
Description: as §5

TRZAS = experiment: as above; type: in vivo, Triticum aestivum; settings: application rate 80 g/ha, crop plant
Description: as §5

BRSNW [22] = experiment: as above; type: in vivo, Brassica napus; settings: application rate 80 g/ha, crop plant
Description: as §5

ZEAMX [23] = experiment: D. Pre-emergence effects on crop plants (Tables D); type: in vivo, Zea mays; settings: crop plant; application rate 80 g/ha; Table D1b
Description: as §6, §7, §8

SETVI [24] = experiment: B. Herbicidal post-emergence action on harmful plants (Tables B); type: in vivo, Setaria viridis; settings: application rate 1280 g/ha; Table B5
Description: as §3

[25] = application rate 1280 g/ha, Table B7a
[26] = application rate 1280 g/ha, Table A9a
[27] = application rate 1280 g/ha, Table A12a
[28] = application rate 80 g/ha, Table A7c
[29] = application rate 320 g/ha, Table A7b
[30] = application rate 1280 g/ha, visual grading after ca. 3 weeks vs untreated controls, 100% = plants have died off, 0% = as control plants

Structure (SMILES)	pre-emergence activity against ECHCG (ECHCG [1]; application rate 320 g/ha)	pre-emergence activity against ECHCG (ECHCG [1]; application rate 1280 g/ha)	post-emergence activity against POAAN (POAAN [2]; [25])	post-emergence activity against LOLRI (LOLRI [3])	pre-emergence activity against ALOMY (ALOMY [5]; [26])	pre-emergence activity against SETVI (SETVI [6]; application rate 320 g/ha)	pre-emergence activity against SETVI (SETVI [6]; application rate 1280 g/ha)	pre-emergence activity against LOLRI (LOLRI [8]; application rate 320 g/ha)	pre-emergence activity against LOLRI (LOLRI [8]; application rate 1280 g/ha)	pre-emergence activity against DIGSA (DIGSA [9]; [27])	pre-emergence activity against STEME (STEME [11]; application rate 320 g/ha)	pre-emergence activity against STEME (STEME [11]; application rate 1280 g/ha)	pre-emergence activity against POAAN (POAAN [12]; [28])	pre-emergence activity against POAAN (POAAN [12]; [29])	pre-emergence activity against POAAN (POAAN [12]; [30])	pre-emergence activity against MATIN (MATIN [13]; application rate 1280 g/ha)	other results
COCc1nn(C)cc1C(=O)N1CCCC1Cc1ccccc1Br (racemic) [Example I-018]	90%	100%	90%	90%	100%	100%	100%	100%	100%	100%	90%	90%	100%	100%	100%	90%	pre-emergence activity against ECHCG (ECHCG [1]; application rate 80 g/ha): 90%; post-emergence activity against POAAN (POAAN [2]; application rate 320 g/ha, Table B7b): 90%; post-emergence activity against MATIN (MATIN [4]; application rate 320 g/ha, Table B4b): 90%; post-emergence activity against MATIN (MATIN [4]; application rate 1280 g/ha, Table B4a): 90%; pre-emergence activity against ALOMY (ALOMY [5]; application rate 320 g/ha, Table A9b): 90%; post-emergence activity against STEME (STEME [7]): 90%; pre-emergence activity against LOLRI (LOLRI [8]; application rate 80 g/ha): 90%; post-emergence activity against ECHCG (ECHCG [10]): 90%; post-emergence activity against VERPE (VERPE): 90%; pre-emergence activity against MATIN (MATIN [13]; application rate 80 g/ha): 90%; pre-emergence activity against MATIN (MATIN [13]; application rate 320 g/ha): 90%
Cn1cc(C(=O)N2CCCC2Cc2ccccc2F)c(COCC(F)F)n1 (racemic) [Example I-044]	90%	100%			90%		90%	90%	90%	100%		90%	90%	100%	100%	90%	pre-emergence activity against ECHCG (ECHCG [14]): 90%; post-emergence activity against GLXMA in % (GLXMA [15]): 0%; pre-emergence activity against DIGSA (DIGSA [16]): 90%; pre-emergence activity against BRSNW in % (BRSNW [17]): 0%; pre-emergence activity against VIOTR (VIOTR): 90%; pre-emergence activity against ALOMY (ALOMY [18]): 90%; pre-emergence activity against GLXMA (GLXMA [19]): 0%; pre-emergence activity against DIGSA (DIGSA [9]; application rate 320 g/ha, Table A12b): 90%; pre-emergence activity against MATIN (MATIN [20]): 90%; post-emergence activity against ZEAMX in % (ZEAMX [21]; application rate 80 g/ha): 0%; post-emergence activity against ZEAMX in % (ZEAMX [21]; application rate 320 g/ha): 0%; post-emergence activity against TRZAS in % (TRZAS): 0%; post-emergence activity against BRSNW in % (BRSNW [22]): 0%; pre-emergence activity against ZEAMX (ZEAMX [23]): 0%
COCc1c(C(=O)N2CCCC2Cc2c(F)cccc2F)cnn1C (racemic) [Example I-124]	90%	100%	90%	90%		90%	90%	90%	100%	90%	90%	90%	90%	100%	100%	100%	post-emergence activity against SETVI (SETVI [24]): 90%
